Results taken from patent publication US20080161366A1, “AMINOALKYL SUBSTITUTED ARYL SULFAMIDE DERIVATIVES AND METHODS OF THEIR USE” (Wyeth, priority 2006, published 2008).
Counter-ions that a name gives are not always drawn.

Tested on: not listed separately
Experiment: Rat liver microsomal stability assay
Type: in vitro ADME
Details: rat liver microsomes, 37° C., NADPH

Compound | RLM stability t1/2
CNCCCN1c2ccccc2N(c2c(F)cccc2F)S1(=O)=O | 2.0 min

Biological target: human norepinephrine transporter (hNET) (Homo sapiens, UniProt P23975)
Experiment: hNET uptake, Protocol B: cell based norepinephrine reuptake assay using recombinant hNET (MDCK-Net6 cells)
Details: MDCK-Net6, read-out: NE uptake (Protocol B) % inhibition @ 6 uM

Sequence of human norepinephrine transporter (hNET) (P23975 whole entry): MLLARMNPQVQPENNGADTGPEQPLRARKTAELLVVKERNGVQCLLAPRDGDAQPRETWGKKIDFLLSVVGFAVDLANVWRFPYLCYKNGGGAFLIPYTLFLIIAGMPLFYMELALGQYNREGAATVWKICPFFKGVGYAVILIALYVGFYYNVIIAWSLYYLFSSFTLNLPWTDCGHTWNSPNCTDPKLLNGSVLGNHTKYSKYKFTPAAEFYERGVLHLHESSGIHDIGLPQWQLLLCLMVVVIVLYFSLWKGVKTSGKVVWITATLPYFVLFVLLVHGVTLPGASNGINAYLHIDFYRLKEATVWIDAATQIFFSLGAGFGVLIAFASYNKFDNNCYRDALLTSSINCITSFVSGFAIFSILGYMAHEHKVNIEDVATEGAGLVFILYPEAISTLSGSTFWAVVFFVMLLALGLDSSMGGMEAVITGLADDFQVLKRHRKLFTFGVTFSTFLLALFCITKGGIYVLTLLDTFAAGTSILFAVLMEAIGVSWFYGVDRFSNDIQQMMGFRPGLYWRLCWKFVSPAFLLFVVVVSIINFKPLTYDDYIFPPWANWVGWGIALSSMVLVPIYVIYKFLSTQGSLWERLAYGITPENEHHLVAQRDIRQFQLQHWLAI

Compound | inhibition at 6 µM
CN(C)CCCCCN1c2ccccc2N(c2ccc(F)cc2Cl)S1(=O)=O [Example 90, 5-[3-(2-chloro-4-fluorophenyl)-2,2-dioxido-2,1,3-benzothiadiazol-1(3H)-yl]-N,N-dimethylpentan-1-amine hydrochloride] | 49%

Same assay, conditions: NE uptake (Protocol B) IC50 (nM), MDCK-Net6 cells, 3H-NE 16 nM

Compound | IC50
CNCCCN1c2c(F)cccc2N(c2ccc(F)cc2F)S1(=O)=O [Example 78, 3-[3-(2,4-Difluorophenyl)-7-fluoro-2,2-dioxido-2,1,3-benzothiadiazol-1(3H)-yl]-N-methylpropan-1-amine hydrochloride] | 45 nM
CNCCCCN1c2ccccc2N(c2c(F)cc(F)cc2F)S1(=O)=O [Example 81, 4-[2,2-Dioxido-3-(2,4,6-trifluorophenyl)-2,1,3-benzothiadiazol-1(3H)-yl]-N-methylbutan-1-amine hydrochloride] | 19 nM
NCCCN1c2ccccc2N(c2ccc(F)cc2Cl)S1(=O)=O [Example 61, 3-[3-(2-Chloro-4-fluorophenyl)-2,2-dioxido-2,1,3-benzothiadiazol-1(3H)-yl]propan-1-amine hydrochloride] | 113 nM
CN(C)CCCCCN1c2ccccc2N(c2ccccc2F)S1(=O)=O [Example 67, 5-[3-(2-fluorophenyl)-2,2-dioxido-2,1,3-benzothiadiazol-1(3H)-yl]-N,N-dimethylpentan-1-amine] | 298 nM
Cc1ccc(N2c3ccccc3N(CCCCN(C)C)S2(=O)=O)c(F)c1 [Example 106, 4-[3-(2-fluoro-4-methylphenyl)-2,2-dioxido-2,1,3-benzothiadiazol-1(3H)-yl]-N,N-dimethylbutan-1-amine] | 591 nM
CN(C)CCCCN1c2ccccc2N(c2ccc(F)cc2F)S1(=O)=O [Example 120, 4-[3-(2,4-difluorophenyl)-2,2-dioxido-2,1,3-benzothiadiazol-1(3H)-yl]-N,N-dimethylbutan-1-amine hydrochloride] | 411 nM
NCCCCCN1c2ccccc2N(c2ccccc2F)S1(=O)=O [Example 65, 5-[3-(2-fluorophenyl)-2,2-dioxido-2,1,3-benzothiadiazol-1(3H)-yl]pentan-1-amine] | 14.1 nM
O=S1(=O)N(CCCNCCO)c2ccccc2N1c1ccccc1F [Example 135, 2-({3-[3-(2-fluorophenyl)-2,2-dioxido-2,1,3-benzothiadiazol-1(3H)-yl]propyl}amino)ethanol] | 43 nM
CCNCCCCN1c2ccccc2N(c2c(F)cccc2F)S1(=O)=O [Example 122, 4-[3-(2,6-difluorophenyl)-2,2-dioxido-2,1,3-benzothiadiazol-1(3H)-yl]-N-ethylbutan-1-amine hydrochloride] | 48 nM
CNCCCN1c2ccccc2N(c2ccc(Cl)cc2F)S1(=O)=O [Example 95, 3-[3-(4-chloro-2-fluorophenyl)-2,2-dioxido-2,1,3-benzothiadiazol-1(3H)-yl]-N-methylpropan-1-amine] | 30 nM
CNCCCCN1c2ccccc2N(c2ccc(O)cc2F)S1(=O)=O [Example 93, 3-fluoro-4-{3-[4-(methylamino)butyl]-2,2-dioxido-2,1,3-benzothiadiazol-1(3H)-yl}phenol hydrochloride] | 3 nM
CNCCCN1c2ccccc2N(c2ccccc2)S1(=O)=O [Example 5, 3-(2,2-dioxido-3-phenyl-2,1,3-benzothiadiazol-1(3H)-yl)-N-methylpropan-1-amine] | 2.63 nM
O=S1(=O)N(CCCNC2CCC2)c2ccccc2N1c1c(F)cccc1F [Example 128, N-{3-[3-(2,6-difluorophenyl)-2,2-dioxido-2,1,3-benzothiadiazol-1(3H)-yl]propyl}cyclobutanamine hydrochloride] | 222 nM
CNCCCCCN1c2ccccc2N(c2ccccc2F)S1(=O)=O [Example 66, 5-[3-(2-fluorophenyl)-2,2-dioxido-2,1,3-benzothiadiazol-1(3H)-yl]-N-methylpentan-1-amine] | 14.2 nM
O=S1(=O)N(CCCCNC2CC2)c2ccccc2N1c1c(F)cccc1F [Example 86, N-{4-[3-(2,6-Difluorophenyl)-2,2-dioxido-2,1,3-benzothiadiazol-1(3H)-yl]butyl}cyclopropanamine hydrochloride] | 21 nM
CNCCCN1c2ccccc2N(c2ccc(F)cc2)S1(=O)=O [Example 6, 3-[3-(4-fluorophenyl)-2,2-dioxido-2,1,3-benzothiadiazol-1(3H)-yl]-N-methylpropan-1-amine] | 6.87 nM
CNCCCCCN1c2ccccc2N(c2ccc(F)cc2F)S1(=O)=O [Example 115, 5-[3-(2,4-difluorophenyl)-2,2-dioxido-2,1,3-benzothiadiazol-1(3H)-yl]-N-methylpentan-1-amine hydrochloride] | 61 nM

Compound | IC50
CCNCCCCN1c2ccccc2N(c2ccc(F)cc2F)S1(=O)=O [Example 121, 4-[3-(2,4-difluorophenyl)-2,2-dioxido-2,1,3-benzothiadiazol-1(3H)-yl]-N-ethylbutan-1-amine hydrochloride] | 1500 nM
CNCCCN1c2ccccc2N(c2ccc(Cl)cc2)S1(=O)=O [Example 1, 3-[3-(4-chlorophenyl)-2,2-dioxido-2,1,3-benzothiadiazol-1(3H)-yl]-N-methylpropan-1-amine] | 20.5 nM
NCCCCCCN1c2ccccc2N(c2ccccc2F)S1(=O)=O [Example 102, 6-[3-(2-fluorophenyl)-2,2-dioxido-2,1,3-benzothiadiazol-1(3H)-yl]hexan-1-amine] | 26 nM
CCNCCCN1c2ccccc2N(c2c(F)cccc2F)S1(=O)=O [Example 126, 3-[3-(2,6-difluorophenyl)-2,2-dioxido-2,1,3-benzothiadiazol-1(3H)-yl]-N-ethylpropan-1-amine hydrochloride] | 15 nM
CNCCCN1c2ccc(F)cc2N(c2ccccc2)S1(=O)=O [Example 44, 3-(5-fluoro-2,2-dioxido-3-phenyl-2,1,3-benzothiadiazol-1(3H)-yl)-N-methylpropan-1-amine] | 4.26 nM
CNCCCN1c2ccc(Cl)cc2N(c2ccccc2)S1(=O)=O [Example 36, 3-(5-Chloro-2,2-dioxido-3-phenyl-2,1,3-benzothiadiazol-1(3H)-yl)-N-methylpropan-1-amine] | 11.3 nM
CNCCCN1c2ccccc2N(c2cccnc2)S1(=O)=O [Example 34, 3-(2,2-dioxido-3-pyridin-3-yl-2,1,3-benzothiadiazol-1(3H)-yl)-N-methylpropan-1-amine hydrochloride] | 85 nM
CNCCCN1c2ccccc2N(c2ccccc2Cl)S1(=O)=O [Example 52, 3-[3-(2-chlorophenyl)-2,2-dioxido-2,1,3-benzothiadiazol-1(3H)-yl]-N-methylpropan-1-amine hydrochloride] | 2.74 nM
CNCCCN1c2ccccc2N(c2cccc(F)c2)S1(=O)=O [Example 12, 3-[3-(3-fluorophenyl)-2,2-dioxido-2,1,3-benzothiadiazol-1(3H)-yl]-N-methylpropan-1-amine] | 12.2 nM
CNCCCN1c2ccccc2N(c2ccc(C)cc2F)S1(=O)=O [Example 108, 3-[3-(2-fluoro-4-methylphenyl)-2,2-dioxido-2,1,3-benzothiadiazol-1(3H)-yl]-N-methylpropan-1-amine] | 4 nM
O=S1(=O)N(CCCNC2CCNCC2)c2ccccc2N1c1ccccc1 [Example 132, N-[3-(2,2-dioxido-3-phenyl-2,1,3-benzothiadiazol-1(3H)-yl)propyl]piperidin-4-amine dihydrochloride] | 267 nM
Cc1cc(F)ccc1N1c2ccccc2N(CCCN)S1(=O)=O [Example 63, 3-[3-(4-fluoro-2-methylphenyl)-2,2-dioxido-2,1,3-benzothiadiazol-1(3H)-yl]propan-1-amine] | 324 nM
O=S1(=O)N(CCCCNC2CCCCC2)c2ccccc2N1c1c(F)cccc1F [Example 125, N-{4-[3-(2,6-difluorophenyl)-2,2-dioxido-2,1,3-benzothiadiazol-1(3-yl]butyl}cyclohexanamine hydrochloride] | 440 nM
CCNCCCN1c2ccccc2N(c2ccccc2F)S1(=O)=O [Example 57, N-ethyl-3-[3-(2-fluorophenyl)-2,2-dioxido-2,1,3-benzothiadiazol-1(3H)-yl]propan-1-amine] | 2.56 nM
CNCCCN1c2ccccc2N(c2ccc(C)cn2)S1(=O)=O [Example 26, N-methyl-3-[3-(5-methylpyridin-2-yl)-2,2-dioxido-2,1,3-benzothiadiazol-1(3H)-yl]propan-1-amine hydrochloride] | 57.1 nM
CNCCCN1c2ccccc2N(c2cccc(OC(F)(F)F)c2)S1(=O)=O [Example 49, 3-{2,2-dioxido-3-[3-(trifluoromethoxy)phenyl]-2,1,3-benzothiadiazol-1(3H)-yl}-N-methylpropan-1-amine hydrochloride] | 147 nM

Same assay, conditions: read-out: NE uptake (Protocol B) IC50; MDCK-Net6 cells, 3H-NE 16 nM

Compound | IC50
N-{3-[3-(2-fluorophenyl)-2,2-dioxido-2,1,3-benzothiadiazol-1(3H)-yl]butyl}cyclopropanamine [Example 99] | 22 nM
